Patent US20070173493A1, “1-Oxadibenzo[e,h]azulenes for the treatment of central nervous system diseases and disorders” (Pliva-Istrazivacki Institut d.o.o., priority 2003, published 2007)

Tests used:
5-HT2A receptor = target: T1, 5-HT2A receptor (Homo sapiens, UniProt P28223); assay: radioligand binding assay for 5-HT2A receptor ([3H]-ketanserin competitive binding); details: human cortex or recombinant 5-HT2A receptor expressed in CHO-K1 cells
T1 construct: expressed in transfected cells; host or cells: CHO-K1 (alternatively human cortex tissue)
Method: (§1) The effect of the compounds of the present invention on the neurochemical steady state was determined by in vitro investigations such as a radionuclide-marked radioligand binding assay for 5-HT2A (Bonhaus D. W. Br. J. Pharmacol. 1995, 115:622; Saucier C. J. Neurochem. 1997, 68:1998) and 5-HT2C receptors (Wolf W. A. J. Neurochem. 1997, 69:1449), in vitro binding assay for the σ1 receptor (Thomson W. and Donn R. Arthritis Res. 2002, 4: 302-306) and by in vivo investigations in a tail suspension test (Vogel H. G. and Vogel W. H. Drug Discovery and Evaluation Pharmacological Assays, Springer 1997, 304), in amphetamine-induced hyperlocomotion in mice (Millan M. J. et al, 1998 J Pharmacol. Exp. Ther. 287: 167-186), in a forced swim test in mice (Porsolt R. D. et al. Arch. Int. Pharmacodyn. 1977, 229:327-336), in meta-chlorophenyl piperazine (m-CPP) test on rats (Drug Dev. Res. 1989, 18:119-144), and in apomorphine, tryptamine, norepinephrine (ATN) test in rats (Arch. […]
(§2) A small concentration of a radioligand having a great affinity for binding to a receptor was incubated with a tissue sample enriched with a certain receptor (1-5 mg of tissue) in a buffered medium (0.2-5 mL). […] When a binding balance was achieved, the receptors to which the radioligand was bound were separated from those to which said ligand was not bound, and the radioactivity of the receptor/radioligand complex was measured. […]

5-HT2C receptor = target: T2, 5-HT2C receptor (Homo sapiens, UniProt P28335); assay: radioligand binding assay for 5-HT2C receptor ([3H]-mesulergine competitive binding); details: choroid plexus or recombinant 5-HT2C receptor expressed in CHO-K1 cells
T2 construct: expressed in transfected cells; host or cells: CHO-K1 (alternatively choroid plexus tissue)
T2 sequence (P28335 33-458): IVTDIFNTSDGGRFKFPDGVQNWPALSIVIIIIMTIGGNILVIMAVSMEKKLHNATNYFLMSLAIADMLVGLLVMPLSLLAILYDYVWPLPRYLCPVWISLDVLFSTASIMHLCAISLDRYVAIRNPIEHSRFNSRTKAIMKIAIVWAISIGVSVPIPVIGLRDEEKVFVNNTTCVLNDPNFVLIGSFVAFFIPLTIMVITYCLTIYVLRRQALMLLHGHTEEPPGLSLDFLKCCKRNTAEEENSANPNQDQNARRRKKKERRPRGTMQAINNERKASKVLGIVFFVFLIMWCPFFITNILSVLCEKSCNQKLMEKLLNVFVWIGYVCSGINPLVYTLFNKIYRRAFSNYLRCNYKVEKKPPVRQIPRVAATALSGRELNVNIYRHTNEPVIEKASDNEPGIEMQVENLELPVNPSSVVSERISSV
Method: as §1, §2

T1 sequence (P28223 whole entry): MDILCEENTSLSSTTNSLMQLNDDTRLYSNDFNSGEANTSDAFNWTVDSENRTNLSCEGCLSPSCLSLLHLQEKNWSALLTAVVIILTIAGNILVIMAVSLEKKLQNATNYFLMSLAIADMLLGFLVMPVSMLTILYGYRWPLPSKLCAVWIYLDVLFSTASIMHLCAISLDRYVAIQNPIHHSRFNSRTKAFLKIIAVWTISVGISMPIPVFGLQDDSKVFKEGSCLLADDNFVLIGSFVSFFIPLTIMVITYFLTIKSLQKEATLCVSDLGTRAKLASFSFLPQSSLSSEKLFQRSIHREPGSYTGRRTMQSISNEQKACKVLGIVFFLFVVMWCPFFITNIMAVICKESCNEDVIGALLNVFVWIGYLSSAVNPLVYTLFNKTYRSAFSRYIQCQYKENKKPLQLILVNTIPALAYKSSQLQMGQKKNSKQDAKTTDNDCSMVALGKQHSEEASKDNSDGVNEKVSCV

Compound `CN(C)CCOCc1cc2c(o1)-c1cc(Cl)ccc1Oc1ccccc1-2` [[2-(11-chloro-1,8-dioxa-dibenzo[e,h]azulen-2-ylmethoxy)-ethyl]-dimethyl-amine] has an IC50 (5-HT2A receptor; read-out: binding affinity to 5-HT2A serotonin receptor expressed as IC50 value) of under 200 nM, a Ki (5-HT2A receptor; read-out: binding affinity to 5-HT2A serotonin receptor, Ki value) of under 100 nM and an IC50 (5-HT2C receptor; read-out: binding affinity to 5-HT2C serotonin receptor expressed as IC50 value) of under 200 nM. The Ki (5-HT2C receptor; read-out: binding affinity to 5-HT2C serotonin receptor, Ki value) was under 100 nM.
